According to patent US6743586B2, “Rapid fluorescence detection of binding to nucleic acid drug targets labelled with highly fluorescent nucleotide base analogs” (The United States of America as represented by the …, priority 2001, dated 2004):
Where two headings read alike, the source gives them in different places. *1 amine or outer side, *2 acyl side, *3 side chain or, on linkers, in order; H or OH if unused. Where no end group is shown, it is not given here. Suc = O=C(CCC(=O)[*:2])[*:1]

How the values were obtained:
72AP-RRE-peptide complex = assay: Competitive displacement: 72AP-RRE-peptide complex (1:1) titrated with Neomycin B, Dynafit fit; format: binding, HIV-1
Description: Quantitative analysis of the binding event indicates the rev peptide binds to 2-AP RRE with wild type affinity (KD˜13±2 nM). The fluorescent 72AP-RRE construct is also a useful probe for assaying small molecule binding to RRE, as well as determining if the small molecule is an effective inhibitor of the rev-RRE interaction. For example, it has been shown using the aminoglycoside Neomycin B, a known inhibitor of RRE-rev interaction, that the 72AP-RRE construct can be used to detect small molecule inhibition of the rev-RRE interaction. […]
The fluorescence of RNA oligonucleotide samples (150 μL), selectively labeled with 2-AP, was measured at 10° C. on a SPEX Fluoromax-2 spectrofluorometer (Instruments, SA, Edison, N.J.) using a 0.3 cm square cuvette. […] Emission spectra were recorded over the wavelength range of 330 to 450 nm with an excitation wavelength of 310 nm. […] The dissociation constant for rev binding to RRE-72AP was determined by following the increase in fluorescence at 370 nm as a fixed concentration of the fluorescent RNA was titrated with increasing amounts if rev. Similarly, the binding of aminoglycosides was followed by monitoring the change in 2-AP fluorescence as a fixed concentration of RRE-72AP or RRE-68AP was titrated with increasing amounts of the aminoglycoside. […]

68AP-RRE = assay: 2-AP fluorescence titration of 68AP-RRE with aminoglycosides; format: binding, HIV-1
Description: For example, using the 68AP-RRE construct, three classes of binding sites for the Neomycin B can be detected.
The fluorescence of RNA oligonucleotide samples (150 μL), selectively labeled with 2-AP, was measured at 10° C. on a SPEX Fluoromax-2 spectrofluorometer (Instruments, SA, Edison, N.J.) using a 0.3 cm square cuvette. RRE sample concentration was typically 100 nM in either standard buffer A (140 mM NaCl, 5 mM KCl, 1 mM MgCl2, 1 mM CaCl2, and 20 mM HEPES [7.4 pH]) or buffer B (25 mM NaCl, 5 mM KCl and 1 mM Cacodylate [6.5 pH]). Emission spectra were recorded over the wavelength range of 330 to 450 nm with an excitation wavelength of 310 nm. The spectral bandpass was 5 nm for all spectra. The dissociation constant for rev binding to RRE-72AP was determined by following the increase in fluorescence at 370 nm as a fixed concentration of the fluorescent RNA was titrated with increasing amounts if rev. Similarly, the binding of aminoglycosides was followed by monitoring the change in 2-AP fluorescence as a fixed concentration of RRE-72AP or RRE-68AP was titrated with increasing amounts of the aminoglycoside. Single site binding of rev or aminoglycoside was fitted to Formula I: […]
where Fo and Ff are the initial and final fluorescence intensities, respectively, [RRE]tot is the total RRE concentration, and [L]tot is the total concentration of rev, aminoglycoside or other ligands. Aminoglycoside binding to multiple sites on RRE was modeled using the computer program Dynafit. Competitive displacement assays were performed to determine which aminoglycoside binding were inhibitory to rev binding. For these experiments, a solution of 2-AP labeled RRE was incubated with a fixed concentration of Neomycin B (or rev peptide), and the fluorescence change followed as increasing amounts of competing rev peptide (or Neomycin B) was added to the solution. The fluorescence emission intensities at 370 nm as a function of total added ligand concentration were fit to a given molecular mechanism by non-linear least squared regression using the computer program Dynafit.

72AP-RRE = assay: 2-AP fluorescence titration of RRE-72AP with rev peptide; parameters: species or system HIV-1; details: fluorescence at 370 nm, 10° C., wild type affinity, read-out: KD of rev peptide binding to 2-AP RRE
Description: The fluorescence of RNA oligonucleotide samples (150 μL), selectively labeled with 2-AP, was measured at 10° C. on a SPEX Fluoromax-2 spectrofluorometer (Instruments, SA, Edison, N.J.) using a 0.3 cm square cuvette. RRE sample concentration was typically 100 nM in either standard buffer A (140 mM NaCl, 5 mM KCl, 1 mM MgCl2, 1 mM CaCl2, and 20 mM HEPES [7.4 pH]) or buffer B (25 mM NaCl, 5 mM KCl and 1 mM Cacodylate [6.5 pH]). Emission spectra were recorded over the wavelength range of 330 to 450 nm with an excitation wavelength of 310 nm. The spectral bandpass was 5 nm for all spectra. The dissociation constant for rev binding to RRE-72AP was determined by following the increase in fluorescence at 370 nm as a fixed concentration of the fluorescent RNA was titrated with increasing amounts if rev. Similarly, the binding of aminoglycosides was followed by monitoring the change in 2-AP fluorescence as a fixed concentration of RRE-72AP or RRE-68AP was titrated with increasing amounts of the aminoglycoside. Single site binding of rev or aminoglycoside was fitted to Formula I:
F=−{(Fo−Ff)/2*[RRE]tot}{b−{square root over ((b^2−4[L]tot[RRE]tot))}}+Fo (1)
where Fo and Ff are the initial and final fluorescence intensities, respectively, [RRE]tot is the total RRE concentration, and [L]tot is the total concentration of rev, aminoglycoside or other ligands. […]

RRE = details: direct binding, highly specific for the RRE; read-out: KD of rev binding to RRE; cited from earlier work

NC[C@@H]1O[C@H](O[C@H]2[C@@H](O)[C@H](O[C@@H]3[C@@H](O)[C@H](N)C[C@H](N)[C@H]3O[C@H]3O[C@H](CN)[C@@H](O)[C@H](O)[C@H]3N)O[C@@H]2CO)[C@H](N)[C@@H](O)[C@@H]1O [Neomycin B]
Kd (72AP-RRE-peptide complex; read-out: KD, first tight site): ~230 nM | Kd (72AP-RRE-peptide complex; read-out: KD, second site, competitive with rev): ~1900 nM | Kd (68AP-RRE; 68AP-RRE construct, read-out: KD, first site, non-inhibitory to rev binding): 240 ± 40 nM | Kd (68AP-RRE; 68AP-RRE construct, read-out: KD, second site, inhibited rev binding in a competitive fashion): 1800 ± 80 nM | Kd (68AP-RRE; 68AP-RRE construct, read-out: KD, third class of sites, non-specific binding): ~40000 nM

[H]/N=C(/N)N[C@H]1[C@H](O)[C@@H](O)[C@H](O[C@@H]2O[C@@H](C)[C@](O)(C=O)[C@H]2O[C@@H]2O[C@@H](CO)[C@H](O)[C@@H](O)[C@@H]2NC)[C@@H](N/C(N)=N\[H])[C@@H]1O [Streptomycin]
Kd (68AP-RRE; RRE, reported alongside the 68AP-RRE data, read-out: KD, low affinity binding interaction with RRE): 1500 nM

Suc-TRQARRNRRWRERQRAAAK [rev peptide]
Kd (72AP-RRE): ~13 nM

rev: HIV-1 regulatory protein rev that binds the rev-responsive element (RRE)
Kd (RRE): 1 to 3 nM
